In the supplement of paper PMC10307832:

Tests used:
Assay in all cases: relative viability (nuclei count vs DMSO), 5 days (fraction); higher = more cells survive
201T = tested on: 201T
Procedure, shortened: (§1)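 Five library-drug doses in √10 steps were combined with a fixed anchor-drug dose, or a single drug was given alone, by pin tool to lung cancer cell lines in 1536-well plates the day after seeding. Nuclei were stained and counted after 5 days. Relative viability is the nuclei count in treated wells over that in vehicle wells, taken as the median of duplicate plates.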

BEN = tested on: BEN
Procedure, shortened: as §1

COR-L 105 = tested on: COR-L 105
Procedure, shortened: as §1

EKVX = tested on: EKVX
Procedure, shortened: as §1

EPLC-272H = tested on: EPLC-272H
Procedure, shortened: as §1

H3255 = tested on: H3255
Procedure, shortened: as §1

HCC-44 = tested on: HCC-44
Procedure, shortened: as §1

HCC-827 = tested on: HCC-827
Procedure, shortened: as §1

LCLC-97TM1 = tested on: LCLC-97TM1
Procedure, shortened: as §1

LOU-NH91 = tested on: LOU-NH91
Procedure, shortened: as §1

LU99A = tested on: LU99A
Procedure, shortened: as §1

NCI-H1437 = tested on: NCI-H1437
Procedure, shortened: as §1

NCI-H1666 = tested on: NCI-H1666
Procedure, shortened: as §1

NCI-H1975 = tested on: NCI-H1975
Procedure, shortened: as §1

NCI-H2085 = tested on: NCI-H2085
Procedure, shortened: as §1

NCI-H2087 = tested on: NCI-H2087
Procedure, shortened: as §1

NCI-H2170 = tested on: NCI-H2170
Procedure, shortened: as §1

NCI-H2342 = tested on: NCI-H2342
Procedure, shortened: as §1

NCI-H647 = tested on: NCI-H647
Procedure, shortened: as §1

NCI-H650 = tested on: NCI-H650
Procedure, shortened: as §1

PC-3 [JPC-3] = tested on: PC-3 [JPC-3]
Procedure, shortened: as §1

SW 1573 = tested on: SW 1573
Procedure, shortened: as §1

## Nc1ccn([C@@H]2O[C@H](CO)[C@@H](O)[C@@H]2O)c(=O)n1 [Cytarabine] + Cc1cc(Nc2cc(N3CCN(C)CC3)nc(Sc3ccc(NC(=O)C4CC4)cc3)n2)n[nH]1 [Tozasertib] (partner 0.1 µM)
201T; first compound 0.005 µM
  relative viability: 0.886
201T; first compound 0.01581 µM
  relative viability: 0.944
201T; first compound 0.05 µM
  relative viability: 0.911
201T; first compound 0.1581 µM
  relative viability: 0.837
201T; first compound 0.5 µM
  relative viability: 0.706
BEN; first compound 0.005 µM
  relative viability: 0.427
BEN; first compound 0.01581 µM
  relative viability: 0.519
BEN; first compound 0.05 µM
  relative viability: 0.569
BEN; first compound 0.1581 µM
  relative viability: 0.63
BEN; first compound 0.5 µM
  relative viability: 0.563
COR-L 105; first compound 0.005 µM
  relative viability: 0.305
COR-L 105; first compound 0.01581 µM
  relative viability: 0.317
COR-L 105; first compound 0.05 µM
  relative viability: 0.306
COR-L 105; first compound 0.1581 µM
  relative viability: 0.319
COR-L 105; first compound 0.5 µM
  relative viability: 0.334
EKVX; first compound 0.005 µM
  relative viability: 0.326
EKVX; first compound 0.01581 µM
  relative viability: 0.35
EKVX; first compound 0.05 µM
  relative viability: 0.333
EKVX; first compound 0.1581 µM
  relative viability: 0.272
EKVX; first compound 0.5 µM
  relative viability: 0.19
EPLC-272H; first compound 0.005 µM
  relative viability: 0.294
EPLC-272H; first compound 0.01581 µM
  relative viability: 0.199
EPLC-272H; first compound 0.05 µM
  relative viability: 0.289
EPLC-272H; first compound 0.1581 µM
  relative viability: 0.29
EPLC-272H; first compound 0.5 µM
  relative viability: 0.261
H3255; first compound 0.005 µM
  relative viability: 0.586
H3255; first compound 0.01581 µM
  relative viability: 0.644
H3255; first compound 0.05 µM
  relative viability: 0.786
H3255; first compound 0.1581 µM
  relative viability: 0.604
H3255; first compound 0.5 µM
  relative viability: 0.488
HCC-44; first compound 0.005 µM
  relative viability: 0.925
HCC-44; first compound 0.01581 µM
  relative viability: 0.928
HCC-44; first compound 0.05 µM
  relative viability: 0.418
HCC-44; first compound 0.1581 µM
  relative viability: 0.379
HCC-44; first compound 0.5 µM
  relative viability: 0.255
HCC-827; first compound 0.005 µM
  relative viability: 0.32
HCC-827; first compound 0.01581 µM
  relative viability: 0.282
HCC-827; first compound 0.05 µM
  relative viability: 0.286
HCC-827; first compound 0.1581 µM
  relative viability: 0.187
HCC-827; first compound 0.5 µM
  relative viability: 0.172
LCLC-97TM1; first compound 0.005 µM
  relative viability: 0.248
LCLC-97TM1; first compound 0.01581 µM
  relative viability: 0.247
LCLC-97TM1; first compound 0.05 µM
  relative viability: 0.235
LCLC-97TM1; first compound 0.1581 µM
  relative viability: 0.207
LCLC-97TM1; first compound 0.5 µM
  relative viability: 0.174
LOU-NH91; first compound 0.005 µM
  relative viability: 0.555
LOU-NH91; first compound 0.01581 µM
  relative viability: 0.53
LOU-NH91; first compound 0.05 µM
  relative viability: 0.672
LOU-NH91; first compound 0.1581 µM
  relative viability: 0.411
LOU-NH91; first compound 0.5 µM
  relative viability: 0.514
LU99A; first compound 0.005 µM
  relative viability: 0.263
LU99A; first compound 0.01581 µM
  relative viability: 0.273
LU99A; first compound 0.05 µM
  relative viability: 0.275
LU99A; first compound 0.1581 µM
  relative viability: 0.288
LU99A; first compound 0.5 µM
  relative viability: 0.281
NCI-H1437; first compound 0.005 µM
  relative viability: 0.295
NCI-H1437; first compound 0.01581 µM
  relative viability: 0.355
NCI-H1437; first compound 0.05 µM
  relative viability: 0.365
NCI-H1437; first compound 0.1581 µM
  relative viability: 0.251
NCI-H1437; first compound 0.5 µM
  relative viability: 0.175
NCI-H1666; first compound 0.005 µM
  relative viability: 0.559
NCI-H1666; first compound 0.01581 µM
  relative viability: 0.628
NCI-H1666; first compound 0.05 µM
  relative viability: 0.469
NCI-H1666; first compound 0.1581 µM
  relative viability: 0.446
NCI-H1666; first compound 0.5 µM
  relative viability: 0.423
NCI-H1975; first compound 0.005 µM
  relative viability: 0.681
NCI-H1975; first compound 0.01581 µM
  relative viability: 0.799
NCI-H1975; first compound 0.05 µM
  relative viability: 0.728
NCI-H1975; first compound 0.1581 µM
  relative viability: 0.317
NCI-H1975; first compound 0.5 µM
  relative viability: 0.206
NCI-H2085; first compound 0.005 µM
  relative viability: 0.809
NCI-H2085; first compound 0.01581 µM
  relative viability: 0.806
NCI-H2085; first compound 0.05 µM
  relative viability: 0.844
NCI-H2085; first compound 0.1581 µM
  relative viability: 0.694
NCI-H2085; first compound 0.5 µM
  relative viability: 0.719
NCI-H2087; first compound 0.005 µM
  relative viability: 0.254
NCI-H2087; first compound 0.01581 µM
  relative viability: 0.25
NCI-H2087; first compound 0.05 µM
  relative viability: 0.234
NCI-H2087; first compound 0.1581 µM
  relative viability: 0.195
NCI-H2087; first compound 0.5 µM
  relative viability: 0.174
NCI-H2170; first compound 0.005 µM
  relative viability: 0.605
NCI-H2170; first compound 0.01581 µM
  relative viability: 0.5
NCI-H2170; first compound 0.05 µM
  relative viability: 0.409
NCI-H2170; first compound 0.1581 µM
  relative viability: 0.386
NCI-H2170; first compound 0.5 µM
  relative viability: 0.26
NCI-H2342; first compound 0.005 µM
  relative viability: 0.507
NCI-H2342; first compound 0.01581 µM
  relative viability: 0.616
NCI-H2342; first compound 0.05 µM
  relative viability: 0.496
NCI-H2342; first compound 0.1581 µM
  relative viability: 0.506
NCI-H2342; first compound 0.5 µM
  relative viability: 0.459
NCI-H647; first compound 0.005 µM
  relative viability: 0.205
NCI-H647; first compound 0.01581 µM
  relative viability: 0.22
NCI-H647; first compound 0.05 µM
  relative viability: 0.0474
NCI-H647; first compound 0.1581 µM
  relative viability: 0.073
NCI-H647; first compound 0.5 µM
  relative viability: 0.0484
NCI-H650; first compound 0.005 µM
  relative viability: 0.595
NCI-H650; first compound 0.01581 µM
  relative viability: 0.513
NCI-H650; first compound 0.05 µM
  relative viability: 0.34
NCI-H650; first compound 0.1581 µM
  relative viability: 0.249
NCI-H650; first compound 0.5 µM
  relative viability: 0.176
PC-3 [JPC-3]; first compound 0.005 µM
  relative viability: 0.726
PC-3 [JPC-3]; first compound 0.01581 µM
  relative viability: 0.826
PC-3 [JPC-3]; first compound 0.05 µM
  relative viability: 0.966
PC-3 [JPC-3]; first compound 0.1581 µM
  relative viability: 0.704
PC-3 [JPC-3]; first compound 0.5 µM
  relative viability: 0.665
SW 1573; first compound 0.005 µM
  relative viability: 0.184
SW 1573; first compound 0.01581 µM
  relative viability: 0.161
SW 1573; first compound 0.05 µM
  relative viability: 0.128
SW 1573; first compound 0.1581 µM
  relative viability: 0.169
SW 1573; first compound 0.5 µM
  relative viability: 0.101
